In the Kinase Knowledgebase extract (Sharma et al. 2016) one finds IC50 data, which are given here for 70 compounds.

pIC50: −log10 of the molar value.

This test deals with EGFR (human) (UniProt P00533).
Chain of EGFR (human) (P00533 whole entry, looked up): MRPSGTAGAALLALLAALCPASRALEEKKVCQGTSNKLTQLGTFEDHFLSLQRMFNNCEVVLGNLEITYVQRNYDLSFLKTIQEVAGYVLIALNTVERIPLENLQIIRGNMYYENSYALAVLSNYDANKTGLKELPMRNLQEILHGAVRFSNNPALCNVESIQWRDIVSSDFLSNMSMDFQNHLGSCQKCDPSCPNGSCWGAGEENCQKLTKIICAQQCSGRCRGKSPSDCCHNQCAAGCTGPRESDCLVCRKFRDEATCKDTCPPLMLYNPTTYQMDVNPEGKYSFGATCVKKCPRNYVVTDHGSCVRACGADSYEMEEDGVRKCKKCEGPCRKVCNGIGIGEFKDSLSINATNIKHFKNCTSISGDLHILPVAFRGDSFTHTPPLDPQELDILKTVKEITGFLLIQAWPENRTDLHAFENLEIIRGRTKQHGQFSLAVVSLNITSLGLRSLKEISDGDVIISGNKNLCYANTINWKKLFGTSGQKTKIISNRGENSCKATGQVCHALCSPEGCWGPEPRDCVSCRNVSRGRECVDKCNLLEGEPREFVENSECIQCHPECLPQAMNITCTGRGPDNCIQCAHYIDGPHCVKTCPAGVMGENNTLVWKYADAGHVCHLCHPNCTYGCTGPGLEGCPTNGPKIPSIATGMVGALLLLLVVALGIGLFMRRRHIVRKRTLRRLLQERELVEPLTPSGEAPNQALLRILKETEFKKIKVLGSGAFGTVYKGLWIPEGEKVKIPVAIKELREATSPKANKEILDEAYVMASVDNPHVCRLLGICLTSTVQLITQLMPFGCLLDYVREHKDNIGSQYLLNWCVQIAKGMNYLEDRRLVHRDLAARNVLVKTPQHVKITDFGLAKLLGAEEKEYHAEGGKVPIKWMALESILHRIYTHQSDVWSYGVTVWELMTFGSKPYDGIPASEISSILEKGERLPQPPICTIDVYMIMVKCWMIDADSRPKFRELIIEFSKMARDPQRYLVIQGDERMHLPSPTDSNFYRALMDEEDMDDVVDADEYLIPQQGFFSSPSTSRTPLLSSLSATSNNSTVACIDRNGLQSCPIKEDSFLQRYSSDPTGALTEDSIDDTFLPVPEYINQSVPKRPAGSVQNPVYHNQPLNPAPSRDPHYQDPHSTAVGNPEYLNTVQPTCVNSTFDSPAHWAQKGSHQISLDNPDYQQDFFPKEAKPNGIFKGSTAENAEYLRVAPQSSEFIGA

As a reminder, the pIC50 is −log10 of the IC50, conventionally taken in molar units. A lower pIC50 goes with a high IC50. Compound `Cc1nc(-c2cccc(NC(=O)c3cccc(C(F)(F)F)c3)c2)c(-c2ccnc(Nc3ccc4c(c3)CN(C)CC4)n2)s1` had a pIC50 greater than 7.00.
The compound `CN(C)CCOc1ccc(Nc2nccc(-c3sc(N)nc3-c3ccc(F)c(NC(=O)c4c(F)cccc4F)c3)n2)cc1Cl` gave a negative-log IC50 (pIC50) greater than 7.00.
The value for `O=C(Cc1cccs1)Nc1cccc(-c2ncsc2-c2ccnc(Nc3ccc4c(c3)NC(=O)CO4)n2)c1` was greater than 7.00; that for `CNc1nc(-c2cccc(NC(=O)c3c(F)cccc3F)c2)c(-c2ccnc(Nc3cccc(CN4CCCC4)c3)n2)s1` was greater than 7.00.
The value for `O=C(Nc1cccc(-c2nc(CF)sc2-c2ccnc(Nc3ccc(OCCN4CCCC4)c(F)c3)n2)c1)c1c(F)cccc1F` was greater than 7.00; that for `CCc1nc(-c2cccc(NC(=O)c3c(F)cccc3F)c2)c(-c2ccnc(Nc3cccc(CN4CCCC4)c3)n2)s1` was greater than 7.00.
For `CN1CCc2ccc(Nc3nccc(-c4sc(CS(=O)(=O)C(C)(C)C)nc4-c4cccc(NC(=O)c5c(F)cccc5F)c4)n3)cc2C1`, the pIC50 was greater than 7.00.
Under `Nc1nc(-c2cccc(OCc3ccccc3)c2)c(-c2ccnc(Nc3cccc(-c4cnco4)c3)n2)s1` stands greater than 7.00; under `COc1ccc(Nc2nccc(-c3sc(NC4CC4)nc3-c3cccc(NC(=O)c4c(F)cccc4F)c3)n2)cc1OCCN(C)C`, greater than 7.00.
The value for `Cc1nc(-c2cccc(NC(=O)c3ccc(F)cc3)c2)c(-c2ccnc(Nc3ccc(OCCN(C)C)c(Cl)c3)n2)s1` was greater than 7.00; that for `Cc1nc(-c2cccc(NC(=O)c3c(F)cccc3F)c2)c(-c2ccnc(Nc3ccc(OC4CCN(C(C)C)CC4)c(F)c3)n2)s1` was greater than 7.00; that for `CN(C)CCOc1ccc(Nc2nccc(-c3sc(-c4ccc(O)cc4)nc3-c3cccc(NC(=O)c4cc(F)ccc4F)c3)n2)cc1Cl` was greater than 7.00.
For `CNc1nc(-c2cccc(NC(=O)c3cc(F)ccc3F)c2)c(-c2ccnc(Nc3ccc(OC)c(F)c3)n2)s1`, the negative-log IC50 (pIC50) is greater than 7.00.
`CN(C)c1nc(-c2cccc(NC(=O)c3c(F)cccc3F)c2)c(-c2ccnc(Nc3ccc(OCCN4CCCC4)nc3)n2)s1` showed a negative logarithm of the IC50 (pIC50) greater than 7.00.
The value for `CN(C)CCOc1ccc(Nc2nccc(-c3sc(N)nc3-c3cc(NC(=O)c4c(F)cccc4F)ccc3F)n2)cc1Cl` was greater than 7.00; that for `CCc1nc(-c2cccc(NC(=O)c3c(F)cccc3F)c2)c(-c2ccnc(Nc3ccc(OCCN4CCCC4)c(F)c3)n2)s1` was greater than 7.00; that for `O=C(Nc1cccc(-c2ncsc2-c2ccnc(Nc3cccc(CN4CCCC4)c3)n2)c1)c1c(F)cccc1F` was greater than 7.00.
For the compound `CN(C)CCOc1cccc(Nc2nccc(-c3sc(N)nc3-c3cccc(NC(=O)c4c(F)cccc4F)c3)n2)c1`, the pIC50 is greater than 7.00.
Under `Nc1nc(-c2cccc(NC(=O)c3cc(F)ccc3F)c2)c(-c2ccnc(Nc3ccc4c(c3)CNCC4)n2)s1` stands greater than 7.00; under `Nc1nc(-c2cccc(NC(=O)C3CCCCC3)c2)c(-c2ccnc(Nc3cccc(-c4cnco4)c3)n2)s1`, greater than 7.00; under `CCNc1nc(-c2cccc(NC(=O)c3c(F)cccc3F)c2)c(-c2ccnc(Nc3ccc(OCCN(C)C)c(Cl)c3)n2)s1`, greater than 7.00.
Under `CCN(CC)CCOc1cccc(Nc2nccc(-c3scnc3-c3cccc(NC(=O)c4cc(F)ccc4F)c3)n2)c1` stands greater than 7.00.
Under `CN(C)CCOc1ccc(Nc2nccc(-c3sc(N)nc3-c3cccc(NC(=O)C4CCCCC4)c3)n2)cc1Cl` stands greater than 7.00; under `Cc1nc(-c2cccc(NC(=O)c3cccnc3F)c2)c(-c2ccnc(Nc3ccc4c(c3)CN(C)CC4)n2)s1`, greater than 7.00; under `O=C(Cc1cccs1)Nc1cccc(-c2ncsc2-c2ccnc(Nc3ccc4c(c3)OCC(=O)N4)n2)c1`, greater than 7.00.
`Cc1nc(-c2cccc(NC(=O)c3c(F)cccc3F)c2)c(-c2ccnc(Nc3cccc(F)c3)n2)s1`: the negative logarithm of the IC50 (pIC50) is greater than 7.00.
Consider `Nc1nc(-c2cccc(NC(=O)c3c(F)cccc3F)c2)c(-c2ccnc(Nc3ccc4c(c3)OCC(=O)N4)n2)s1`, for which the negative logarithm of the IC50 (pIC50) is greater than 7.00.
`O=C(Nc1cccc(-c2nc(N3CCCCC3)sc2-c2ccnc(Nc3cccc(CN4CCCC4)c3)n2)c1)c1c(F)cccc1F` showed a pIC50 greater than 7.00.
The value for `Nc1nc(-c2cccc(NC(=O)c3c(F)cccc3F)c2)c(-c2ccnc(Nc3cccc(-c4cnco4)c3)n2)s1` was greater than 7.00.
Compound `CN(C)C1Cc2ccc(Nc3nccc(-c4sc(N)nc4-c4cccc(NC(=O)c5c(F)cccc5F)c4)n3)cc2C1` (stereo not given) had a negative-log IC50 (pIC50) greater than 7.00.
The value for `O=C(Nc1cccc(-c2nc(NCCCN3CCOCC3)sc2-c2ccnc(Nc3cccc(CN4CCCC4)c3)n2)c1)c1c(F)cccc1F` was greater than 7.00; that for `CN(C)CCOc1ccc(Nc2nccc(-c3sc(N(C)C)nc3-c3cccc(NC(=O)c4c(F)cccc4F)c3)n2)cc1` was greater than 7.00; that for `CCc1nc(-c2cccc(NC(=O)c3c(F)cccc3F)c2)c(-c2ccnc(Nc3ccc(OCCN4CCCC4)c(Cl)c3)n2)s1` was greater than 7.00.
With `O=C(Nc1cccc(-c2nc(CO)sc2-c2ccnc(Nc3ccc(OCCN4CCCC4)c(F)c3)n2)c1)c1c(F)cccc1F`, the pIC50 is greater than 7.00.
The value for `CS(=O)(=O)CCN1CCN(c2ccc(Nc3nccc(-c4scnc4-c4cccc(NC(=O)c5c(F)cccc5F)c4)n3)cc2F)CC1` was greater than 7.00.
In turn, `CN1CCN(c2nc(-c3cccc(NC(=O)c4c(F)cccc4F)c3)c(-c3ccnc(Nc4cccc(CN5CCCC5)c4)n3)s2)CC1` gave a pIC50 greater than 7.00.
The value for `Nc1nc(-c2cccc(NC(=O)c3c(F)cccc3F)c2)c(-c2ccnc(Nc3cccc(CN4CCCC4)c3)n2)s1` was greater than 7.00; that for `COCCNc1nc(-c2cccc(NC(=O)c3c(F)cccc3F)c2)c(-c2ccnc(Nc3ccc(OCCN4CCCC4)c(Cl)c3)n2)s1` was greater than 7.00.
The value for `O=C(Nc1cccc(-c2nc(NCCN3CCOCC3)sc2-c2ccnc(Nc3ccc4c(c3)CNCC4)n2)c1)c1c(F)cccc1F` was greater than 7.00.
As for `COCCOc1ccc(Nc2nccc(-c3sc(N)nc3-c3cccc(NC(=O)c4c(F)cccc4F)c3)n2)cc1F`, the pIC50 is greater than 7.00.
The value for `COc1ccccc1C(=O)Nc1cccc(-c2nc(C)sc2-c2ccnc(Nc3ccc4c(c3)CN(C)CC4)n2)c1` was greater than 7.00; that for `COCCOc1ccc(Nc2nccc(-c3sc(N)nc3-c3cccc(NC(=O)c4cccn4C)c3)n2)cc1F` was greater than 7.00; that for `CN(C)CCOc1ccc(Nc2nccc(-c3sc(N4CCCCC4)nc3-c3cccc(NC(=O)c4c(F)cccc4F)c3)n2)cc1Cl` was greater than 7.00.
Under `Cc1nc(-c2cccc(NC(=O)c3c(F)cccc3F)c2)c(-c2ccnc(Nc3cccc(OCCN(C)C)c3)n2)s1` stands greater than 7.00; under `Cc1nc(-c2cccc(NC(=O)c3c(F)cccc3F)c2)c(-c2ccnc(Nc3ccc(OC4CCN(C)CC4)c(F)c3)n2)s1`, greater than 7.00.
Under `CN(C)CCOc1cccc(Nc2nccc(-c3sc(N4CCCCC4)nc3-c3cccc(NC(=O)c4c(F)cccc4F)c3)n2)c1` stands greater than 7.00.
`CN(C)c1nc(-c2cccc(NC(=O)c3c(F)cccc3F)c2)c(-c2ccnc(Nc3cccc(CN4CCCC4)c3)n2)s1`: the negative logarithm of the IC50 (pIC50) is greater than 7.00.
The value for `CN1CCc2ccc(Nc3nccc(-c4sc(N5CCCC5)nc4-c4cccc(NC(=O)c5c(F)cccc5F)c4)n3)cc2C1` was greater than 7.00; that for `CCc1nc(-c2cccc(NC(=O)c3c(F)cccc3F)c2)c(-c2ccnc(Nc3ccc(OCCN(C)C)c(Cl)c3)n2)s1` was greater than 7.00.
The value for `Nc1nc(-c2cccc(NC(=O)C3CCCCC3)c2)c(-c2ccnc(Nc3ccc4c(c3)CNCC4)n2)s1` was greater than 7.00.
As for `Cc1nc(-c2cccc(NC(=O)c3c(F)cccc3F)c2)c(-c2ccnc(Nc3cccc(CN4CCCC4)c3)n2)s1`, the pIC50 is greater than 7.00.
The value for `Nc1nc(-c2cccc(C(=O)Nc3c(F)cccc3F)c2)c(-c2ccnc(Nc3cccc(CN4CCCC4)c3)n2)s1` was greater than 7.00.
The value for `CN(C)Cc1cccc(Nc2nccc(-c3scnc3-c3cccc(NC(=O)Cc4cccs4)c3)n2)c1` was greater than 7.00; that for `CN1CCC(c2nc(-c3cccc(NC(=O)c4c(F)cccc4F)c3)c(-c3ccnc(Nc4ccc5c(c4)CN(C)CC5)n3)s2)CC1` was greater than 7.00; that for `CC(=O)Nc1nc(-c2cccc(NC(=O)c3c(F)cccc3F)c2)c(-c2ccnc(Nc3cccc(CN4CCCC4)c3)n2)s1` was greater than 7.00.
As to `CN1CCc2ccc(Nc3nccc(-c4sc(NCCCN5CCOCC5)nc4-c4cccc(NC(=O)c5c(F)cccc5F)c4)n3)cc2C1`, the pIC50 was greater than 7.00.
Take `CN(C)Cc1cccc(Nc2nccc(-c3scnc3-c3cccc(NC(=O)c4c(F)cccc4F)c3)n2)c1`: the pIC50 is greater than 7.00.
The value for `Nc1nc(-c2cccc(OCc3ccccc3)c2)c(-c2ccnc(Nc3ccc4c(c3)CNCC4)n2)s1` was greater than 7.00; that for `NS(=O)(=O)CCc1cccc(Nc2nccc(-c3scnc3-c3cccc(NC(=O)c4cc(F)ccc4F)c3)n2)c1` was greater than 7.00; that for `CN(C)CCOc1cccc(Nc2nccc(-c3sc(N)nc3-c3cccc(C(=O)Nc4c(F)cccc4F)c3)n2)c1` was greater than 7.00.
Compound `Cc1nc(-c2cccc(NC(=O)c3c(F)cccc3F)c2)c(-c2ccnc(Nc3ccc(OCCN(C)C)c(F)c3)n2)s1` gave a negative logarithm of the IC50 (pIC50) greater than 7.00.
The value for `Cc1nc(-c2cccc(NC(=O)c3cc(F)ccc3F)c2)c(-c2ccnc(Nc3ccc(OCCN(C)C)c(Cl)c3)n2)o1` was greater than 7.00; that for `CS(=O)(=O)Cc1ccc(Nc2nccc(-c3scnc3-c3cccc(NC(=O)c4c(F)cccc4F)c3)n2)cc1` was greater than 7.00.
Under `COc1ccc(Nc2nccc(-c3sc(N)nc3-c3cccc(NC(=O)c4c(F)cccc4F)c3)n2)cc1N1CCN(C)CC1` stands greater than 7.00; under `Nc1nc(-c2cccc(NC(=O)c3c(F)cccc3F)c2)c(-c2ccnc(Nc3cccc(CCS(N)(=O)=O)c3)n2)s1`, greater than 7.00; under `CCN(CC)CCOc1cccc(Nc2nccc(-c3sc(N)nc3-c3cccc(NC(=O)c4c(F)cccc4F)c3)n2)c1`, greater than 7.00.
For `Cc1cc(-c2sc(N)nc2-c2cccc(NC(=O)c3c(F)cccc3F)c2)nc(Nc2cccc(OCCN(C)C)c2)n1`, the pIC50 is greater than 7.00.
On to `CN(C)CCOc1ccc(Nc2nccc(-c3sc(N4CCN(C)CC4)nc3-c3cccc(NC(=O)c4c(F)cccc4F)c3)n2)cc1Cl`, for which the pIC50 is greater than 7.00.
Take `COCCOc1ccc(Nc2nccc(-c3sc(N)nc3-c3cccc(NC(=O)c4cc(F)ccc4F)c3)n2)cc1F`: the pIC50 is greater than 7.00.
Take `CC(C)c1nc(-c2cccc(NC(=O)c3c(F)cccc3F)c2)c(-c2ccnc(Nc3cccc(OCCN(C)C)c3)n2)s1`: the pIC50 was greater than 7.00.
